Experiments:
[1] = test system: Human immunodeficiency virus 1; assay: Antiviral activity against HIV-1 NL4-3 in human MT-4 cells assessed as virus induced cytopathic effect incubated for 5 days by MTT assay; type: functional, organism-based; conditions: Human immunodeficiency virus 1, NL4-3, MT4, 120 h
[2] = test system: Human immunodeficiency virus 1; assay: Antiviral activity against HIV-1 NL(AD8) in human PM1/CCR5 cells assessed as virus induced cytopathic effect incubated for 5 days by MTT assay; type: functional, organism-based; conditions: Human immunodeficiency virus 1, NL(AD8), PM1/CCR5, 120 h
[3] = Cytotoxicity against in human MT-4 after 5 days by MTT assay; type: cell-based, MT4; conditions: MT-4 cells, time 5 day
[4] = test system: Human immunodeficiency virus 1; assay: Antiviral activity against HIV-1 NL(AD8) in human PM1/CCR5 cells assessed as virus induced cytopathic effect at 50 uM incubated for 5 days by MTT assay; type: functional; conditions: Human immunodeficiency virus 1, NL(AD8), PM1/CCR5, 120 h, time 5 day
[5] = test system: Human immunodeficiency virus 1; assay: Antiviral activity against HIV-1 NL4-3 in human MT-4 cells assessed as virus induced cytopathic effect at 25 uM incubated for 5 days by MTT assay; type: functional; conditions: Human immunodeficiency virus 1, NL4-3, MT4, 120 h, time 5 day

## CC[C@H](C)[C@H](NC(=O)[C@@H](NC(=O)[C@H](CCCCN)NC(=O)[C@H](CO)NC(=O)[C@H](CC(=O)O)NC(=O)[C@@H]1CCCN1C(=O)[C@H](CC(N)=O)NC(=O)[C@H](C)NC(=O)[C@H](CC(N)=O)NC(=O)[C@H](CCC(N)=O)NC(=O)[C@@H](NC(=O)[C@H](CC(C)C)NC(=O)[C@H](CC(C)C)NC(=O)[C@@H](NC(=O)[C@H](CCC(=O)O)NC(=O)[C@@H](NC(=O)[C@H](CCSC)NC(=O)[C@H](Cc1c[nH]c2ccccc12)NC(=O)[C@H](CC(N)=O)NC(=O)[C@H](CCCCN)NC(=O)[C@@H](NC(=O)[C@H](CCC(=O)O)NC(=O)[C@H](CCC(N)=O)NC(=O)[C@H](CO)NC(C)=O)C(C)C)[C@@H](C)O)[C@@H](C)O)C(C)C)[C@@H](C)O)C(=O)N[C@@H](CC(C)C)C(=O)N[C@@H](CCCCN)C(=O)N[C@@H](C)C(=O)N[C@@H](CC(C)C)C(=O)NCC(=O)N1CCC[C@H]1C(=O)NCC(=O)N[C@@H](C)C(=O)N[C@H](C(=O)NCC(=O)N[C@@H](CSCC(=O)N[C@@H](CCCNC(=N)N)C(=O)N[C@@H](CCCNC(=N)N)C(=O)N[C@@H](CCCNC(=N)N)C(=O)N[C@@H](CCCNC(=N)N)C(=O)N[C@@H](CCCNC(=N)N)C(=O)N[C@@H](CCCNC(=N)N)C(=O)N[C@@H](CCCNC(=N)N)C(=O)N[C@@H](CCCNC(=N)N)C(N)=O)C(N)=O)[C@@H](C)O
[1]
  EC50: 22 µM
[2]
  EC50: 50 µM
[3]
  CC50 at 120 h: > 50 µM

## CSCC[C@H](NC(=O)[C@H](Cc1c[nH]c2ccccc12)NC(=O)[C@H](CC(N)=O)NC(=O)[C@H](CCCCN)NC(=O)[C@@H](NC(C)=O)C(C)C)C(=O)N[C@H](C(=O)N[C@@H](CCC(=O)O)C(=O)N[C@H](C(=O)N[C@@H](CC(C)C)C(=O)N[C@@H](CC(C)C)C(=O)N[C@H](C(=O)N[C@@H](CCC(N)=O)C(=O)N[C@@H](CC(N)=O)C(=O)N[C@@H](C)C(=O)N[C@@H](CC(N)=O)C(=O)NCC(=O)N[C@@H](CSCC(=O)N[C@@H](CCCNC(=N)N)C(=O)N[C@@H](CCCNC(=N)N)C(=O)N[C@@H](CCCNC(=N)N)C(=O)N[C@@H](CCCNC(=N)N)C(=O)N[C@@H](CCCNC(=N)N)C(=O)N[C@@H](CCCNC(=N)N)C(=O)N[C@@H](CCCNC(=N)N)C(=O)N[C@@H](CCCNC(=N)N)C(N)=O)C(N)=O)C(C)C)[C@@H](C)O)[C@@H](C)O
[1]
  EC50: > 50 µM
[4]
  inhibition at 50 µM: 40%
[5]
  inhibition at 25 µM: 27%
[2]
  EC50: 50 µM
[3]
  CC50 at 120 h: > 50 µM

## CC[C@H](C)[C@H](NC(=O)[C@@H](NC(=O)[C@H](CCCCN)NC(=O)[C@H](CO)NC(=O)[C@H](CC(=O)O)NC(=O)[C@@H]1CCCN1C(=O)[C@H](CC(N)=O)NC(=O)[C@H](C)NC(=O)[C@H](CC(N)=O)NC(=O)[C@H](CCC(N)=O)NC(=O)[C@@H](NC(=O)[C@H](CC(C)C)NC(=O)[C@H](CC(C)C)NC(=O)[C@@H](NC(=O)[C@H](CCC(=O)O)NC(=O)[C@@H](NC(=O)[C@H](CCSC)NC(=O)[C@H](Cc1c[nH]c2ccccc12)NC(=O)[C@H](CC(N)=O)NC(=O)[C@H](CCCCN)NC(=O)[C@@H](NC(=O)[C@H](CCC(=O)O)NC(=O)[C@H](CCC(N)=O)NC(=O)[C@H](CO)NC(C)=O)C(C)C)[C@@H](C)O)[C@@H](C)O)C(C)C)[C@@H](C)O)C(=O)N[C@@H](CC(C)C)C(=O)N[C@@H](CCCCN)C(=O)N[C@@H](C)C(=O)N[C@@H](CC(C)C)C(=O)NCC(=O)N[C@@H](CSCC(=O)N[C@@H](CCCNC(=N)N)C(=O)N[C@@H](CCCNC(=N)N)C(=O)N[C@@H](CCCNC(=N)N)C(=O)N[C@@H](CCCNC(=N)N)C(=O)N[C@@H](CCCNC(=N)N)C(=O)N[C@@H](CCCNC(=N)N)C(=O)N[C@@H](CCCNC(=N)N)C(=O)N[C@@H](CCCNC(=N)N)C(N)=O)C(N)=O
[1]
  EC50: > 25 µM
[5]
  inhibition at 25 µM: 39%
[2]
  EC50: 50 µM
[3]
  CC50 at 120 h: 21 µM

## c1cc(CN2CCCNCCNCCCNCC2)ccc1CN1CCCNCCNCCCNCC1 [PLERIXAFOR]
[1]
  EC50: 0.049 µM
[2]
  EC50: > 50 µM
[3]
  CC50 at 120 h: > 50 µM

## COC[C@@H](c1ccc(C(F)(F)F)cc1)N1CCN(C2(C)CCN(C(=O)c3c(C)ncnc3C)CC2)C[C@@H]1C [VICRIVIROC]
[1]
  EC50: > 5 µM
[2]
  EC50: 0.21 µM
[3]
  CC50 at 120 h: > 5 µM

## Cc1cn([C@H]2C[C@H](N=[N+]=[N-])[C@@H](CO)O2)c(=O)[nH]c1=O [ZIDOVUDINE]
[1]
  EC50: 0.094 µM
[2]
  EC50: 3.3 µM
[3]
  CC50 at 120 h: 74 µM
